According to patent US4127671A, “P-acetamidophenyl diethylaminoacetate” (Societe Anonyme dite: HEXACHIME, priority 1977, dated 1978):

Assays:
[1] = tested on: reactions of pain (abdominal twists), phenyl benzoquinone; experiment: analgesic action: inhibition of phenyl benzoquinone-induced reactions of pain (abdominal twists); type: in vivo, male mice (SPF, OFI strain); details: mice, pain reactions counted from 5 to 10 minute
Description: (§1) The analgesic action of the product was determined by the following method: batches of 6 male mice (SPF, OFI strain), weighing 19 to 20 g, received the test product by intravenous means. 0.3 c.c. per mouse of a 0.02% solution of phenyl benzoquinone was simultaneously injected by intraperitoneal means and the number of reactions of pain (abdominal twists) was counted from the 5 to the 10 minute after the latter treatment.
The following Table I gives the inhibitory percentage of these reactions.

solubility in water = type: physicochemical; details: novel derivative
[2] = stability of aqueous solutions; type: physicochemical; details: with the passage of time
[3] = release of p-acetamidophenol in the organism
[4] = pharmacological properties compared with paracetamol; type: in vivo
Description: as §1
The antihyperthermisant action of the product according to the invention was determined by the following method: batches of 5 male Fauve de Bourgogne rabbits weighing 2 to 3 kg receive by intraveneous means 1 c.c./kg of an endotoxin solution of Salmonella abortus equivalent to 1 γ/kg in the physiological serum.
Two and a half hours later, the test product was administered in a physiological solution by intraveneous means.
The rectal temperature was recorded at regular intervals by an Ellab thermocouple. The probe was pressed 80 mm in.

- solubility in water (solubility in water): very soluble in water
- stability of aqueous solutions [2]: stable with the passage of time
- release of p-acetamidophenol [3]: rapidly releases p-acetamidophenol
SMILES: CCN(CC)CC(=O)Oc1ccc(NC(C)=O)cc1 [p-acetamidophenyl diethylaminoacetate]
- % of inhibition ([1]; 8 mg/kg I.V.): 26%
- % of inhibition ([1]; 16 mg/kg I.V.): 41%
- % of inhibition ([1]; 32 mg/kg I.V.): 68%
- % of inhibition ([1]; 64 mg/kg I.V.): 94%
- pharmacological properties [4]: comparable to those of paracetamol
